Measured values from patent publication US10525055B2, “Opioid receptor antagonist prodrugs” (Nirsum Laboratories, Inc., priority 2017, dated 2020).

Columns and labels:
[1] = cited from earlier work
[2] = Polymorph screening of solid state drug substances; conditions: for XRPD results (Dried): stirred 50 °C 72 hours, solids dried; for Visual observation 50° C. / Visual observation RT: target conc. 100 mg/ml
[3] = Plasma stability assay, rat plasma; type: in vitro ADME; conditions: 37° C., 10 μM
[4] = Equilibrium solubility in water; conditions: heating temp. 40 °C, obs. temp. 40 °C
[5] = molecular target: T1, KOR (Homo sapiens, UniProt P41145); experiment: Opioid receptor binding assay, KOR ([3H]Diprenorphine)
T1 construct: expressed in transfected cells; membranes prepared from them

[6] = Solubility determination in oil (cottonseed oil, sesame oil); conditions: Sesame oil; heating temp. 40 °C, obs. temp. 40 °C
Description: A known amount of test substance (˜40 mg) was weighed into the vial, 100 μL of oil was added and heated to 60° C. and then system was slurried to reach equilibrium. […] Extra oil was added into the vial once compound precipitated out and then the system was re-equilibrated at 1000 rpm at room temperature (25° C.). Final concentration was determined by HPLC method as described below in Table 6a and 6b.

[7] = molecular target: T2, MOR (Homo sapiens, UniProt P35372); experiment: Opioid receptor binding assay, MOR ([3H]DAMGO)
T2 construct: expressed in transfected cells; membranes prepared from them
T2 sequence (P35372 whole entry): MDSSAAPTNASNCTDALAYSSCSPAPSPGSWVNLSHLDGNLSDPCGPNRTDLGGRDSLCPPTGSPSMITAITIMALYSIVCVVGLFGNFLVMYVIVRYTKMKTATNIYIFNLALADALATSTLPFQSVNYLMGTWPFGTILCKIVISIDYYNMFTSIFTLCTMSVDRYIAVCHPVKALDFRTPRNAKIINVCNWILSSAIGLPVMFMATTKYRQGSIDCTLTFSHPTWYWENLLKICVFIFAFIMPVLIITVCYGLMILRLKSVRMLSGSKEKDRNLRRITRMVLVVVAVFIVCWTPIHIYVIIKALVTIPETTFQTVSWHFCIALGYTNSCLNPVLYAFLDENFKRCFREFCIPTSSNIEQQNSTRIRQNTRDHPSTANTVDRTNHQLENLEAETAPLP

T1 sequence (P41145 whole entry): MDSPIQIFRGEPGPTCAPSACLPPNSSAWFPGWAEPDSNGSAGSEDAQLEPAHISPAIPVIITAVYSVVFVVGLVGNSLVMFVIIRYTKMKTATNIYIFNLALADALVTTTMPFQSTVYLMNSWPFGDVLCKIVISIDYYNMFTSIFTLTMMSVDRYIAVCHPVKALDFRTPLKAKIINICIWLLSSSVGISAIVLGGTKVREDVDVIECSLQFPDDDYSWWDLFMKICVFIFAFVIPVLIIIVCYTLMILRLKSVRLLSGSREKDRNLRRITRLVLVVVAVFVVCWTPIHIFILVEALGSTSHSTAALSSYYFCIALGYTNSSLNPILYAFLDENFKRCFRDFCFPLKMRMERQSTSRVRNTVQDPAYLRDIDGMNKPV

SMILES: Oc1ccc2c3c1O[C@H]1[C@H](O)CC[C@@]4(O)[C@@H](C2)N(CC2CC2)CC[C@]314 [6-β-naltrexol]
- time of peak plasma levels after oral dosing [1]: one
- mean elimination half-life ([1]; oral): thirteen

SMILES: C=C1CC[C@@]2(O)C3Cc4ccc(OC(=O)CCCCCCCCCCCCCCCCCCCCC)c5c4[C@@]2(CCN3CC2CC2)[C@H]1O5 [Compound 14, (4aS,7aS,12bS)-3-(cyclopropylmethyl)-4a-hydroxy-7-methylene-2,3,4,4a,5,6,7,7a-octahydro-1H-4,12-methanobenzofuro[3,2-e]isoquinolin-9-yl docosanoate]
- XRPD results (Dried) ([2]; Acetone): Pattern A
- Visual observation 50° C. ([2]; Acetone): Clear
- Visual observation RT ([2]; Acetone): Slimy
- XRPD results (Dried) ([2]; EtOAc): Pattern A
- Visual observation 50° C. ([2]; EtOAc): Clear
- Visual observation RT ([2]; EtOAc): Slurry
- XRPD results (Dried) ([2]; Heptane): Pattern B
- Visual observation 50° C. ([2]; Heptane): Slurry
- Visual observation RT ([2]; Heptane): Slurry
- XRPD results (Dried) ([2]; Isopropanol): Pattern A
- Visual observation 50° C. ([2]; Isopropanol): Clear
- Visual observation RT ([2]; Isopropanol): Clear
- XRPD results (Dried) ([2]; MTBE): Pattern A
- Visual observation 50° C. ([2]; MTBE): Clear
- Visual observation RT ([2]; MTBE): Clear
- % remaining at time point in minutes, 0 min ([3]; 0 min): 100%
- % remaining at time point in minutes, 15 min ([3]; 15 min): 94%
- % remaining at time point in minutes, 120 min ([3]; 120 min): 112%
- % remaining at time point in minutes, 480 min ([3]; 480 min): 107%
- % remaining at time point in minutes, 1440 min ([3]; 1440 min): 120%
- Equilibrium solubility (mg/mL) Water [4]: 0.0056 mg/mL
- IC50 [5]: 1.77 µM
- %Inh@MaxDose ([5]; KOR, MaxDose 10000 nM): 68.1%
- Approximate Solubility (mg/mL) in Excipient: Sesame oil [6]: <51 mg/mL
- IC50 [7]: 0.0125 µM
- %Inh@MaxDose ([7]; MOR, MaxDose 10000 nM): 92.7%

SMILES: O=C1CC[C@@]2(O)[C@H]3Cc4ccc(O)c5c4[C@@]2(CCN3CC2CC2)[C@H]1O5 [naltrexone, 17-(cyclopropylmethyl)-4,5α-epoxy-3,14-dihydroxymorphinan-6-one, reference compound]
- time of peak plasma levels after oral dosing [1]: one
